Laboratory results taken from ChEMBL document CHEMBL1138843, “Pyrazolo[1,5-a]pyrimidines: estrogen receptor ligands possessing estrogen receptor beta antagonist activity” (J Med Chem, 2004).

Assays:
[1] = molecular target: T1, Estrogen receptor (Homo sapiens) (UniProt P03372)
T1 sequence (whole entry): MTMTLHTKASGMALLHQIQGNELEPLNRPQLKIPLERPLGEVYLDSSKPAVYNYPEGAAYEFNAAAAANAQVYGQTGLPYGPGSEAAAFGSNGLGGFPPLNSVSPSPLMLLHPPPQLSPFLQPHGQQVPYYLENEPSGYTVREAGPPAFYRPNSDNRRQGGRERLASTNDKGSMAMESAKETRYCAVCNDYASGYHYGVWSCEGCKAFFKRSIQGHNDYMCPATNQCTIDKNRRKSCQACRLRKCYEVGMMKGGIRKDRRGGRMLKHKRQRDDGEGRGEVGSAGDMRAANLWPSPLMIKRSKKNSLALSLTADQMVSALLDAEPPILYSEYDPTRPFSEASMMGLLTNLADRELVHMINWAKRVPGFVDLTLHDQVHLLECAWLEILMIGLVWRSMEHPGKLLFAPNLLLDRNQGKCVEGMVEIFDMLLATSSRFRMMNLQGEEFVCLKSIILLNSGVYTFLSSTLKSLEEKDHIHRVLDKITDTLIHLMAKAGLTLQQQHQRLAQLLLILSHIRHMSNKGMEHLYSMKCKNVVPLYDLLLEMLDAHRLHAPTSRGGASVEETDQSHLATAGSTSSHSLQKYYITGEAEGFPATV
Description: Relative binding affinity for human estrogen receptor 1 compared to [3H]estradiol (100%)

[2] = molecular target: Estrogen receptor beta (Homo sapiens) (UniProt Q92731)
Chain of Estrogen receptor beta (Homo sapiens) (Q92731 whole entry): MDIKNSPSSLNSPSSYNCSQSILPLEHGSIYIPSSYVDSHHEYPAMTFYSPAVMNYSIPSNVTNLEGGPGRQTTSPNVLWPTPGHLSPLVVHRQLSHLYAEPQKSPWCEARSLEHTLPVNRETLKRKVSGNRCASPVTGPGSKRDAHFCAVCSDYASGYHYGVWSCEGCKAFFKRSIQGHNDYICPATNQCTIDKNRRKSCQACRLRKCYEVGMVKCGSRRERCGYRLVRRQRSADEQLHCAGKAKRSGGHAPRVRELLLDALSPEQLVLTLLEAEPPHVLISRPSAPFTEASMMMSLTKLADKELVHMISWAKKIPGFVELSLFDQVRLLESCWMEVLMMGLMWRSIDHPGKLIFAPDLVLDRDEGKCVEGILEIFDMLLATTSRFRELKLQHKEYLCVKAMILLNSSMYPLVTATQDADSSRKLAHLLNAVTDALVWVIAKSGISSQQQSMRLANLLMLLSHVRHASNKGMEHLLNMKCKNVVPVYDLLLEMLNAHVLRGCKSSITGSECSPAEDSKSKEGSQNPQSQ
Description: Relative binding affinity for human estrogen receptor 2 compared to [3H]estradiol (100%)
Also: unit not given here.

SMILES	Binding affinity [1]	Binding affinity [2]
Cc1c(C(C)(C)C)nc2c(-c3ccc(O)cc3)c(-c3ccccc3)nn2c1C(C)(C)C	< 0.01	0.01
Oc1ccc(-c2c(-c3ccccc3)nn3c(C(F)(F)F)cc(C(F)(F)F)nc23)cc1	0.01	0.05
Cc1c(C(C)(C)C)nc2c(-c3ccc(O)cc3)c(-c3ccc(O)cc3)nn2c1C(C)(C)C	0.13	0.16
Oc1ccc(-c2c(-c3cccc(O)c3)nn3c(-c4ccccc4)cc(-c4ccccc4)nc23)cc1	< 0.01	< 0.01
Oc1ccc(-c2c(-c3ccccc3)nn3c(-c4ccccc4)cc(-c4ccccc4)nc23)cc1	< 0.01	< 0.01
Cc1c(C(C)(C)C)nc2c(-c3ccccc3)c(-c3ccc(O)cc3)nn2c1C(C)(C)C	0.83	0.02
c1ccc(-c2nn3cccnc3c2-c2ccccc2)cc1	< 0.01	< 0.01
CCc1cc(CC)n2nc(-c3ccccc3)c(-c3ccccc3)c2n1	< 0.01	< 0.01
Oc1ccc(-c2nn3cccnc3c2-c2ccc(O)cc2)cc1	< 0.01	0.1
CC(C)c1cc(C(C)C)n2nc(-c3ccc(O)cc3)c(-c3ccccc3)c2n1	0.14	0.06
Oc1ccc(-c2nn3c(C(F)(F)F)cc(C(F)(F)F)nc3c2-c2ccc(O)cc2)cc1	1.9	1.7
CC(C)c1cc(C(C)C)n2nc(-c3ccc(O)cc3)c(-c3ccc(O)cc3)c2n1	0.1	0.07
Oc1ccc(-c2nn3c(-c4ccccc4)cc(-c4ccccc4)nc3c2-c2ccc(O)cc2)cc1	0.02	0.03
CCc1cc(CC)n2nc(-c3ccc(O)cc3)c(-c3ccccc3)c2n1	0.13	0.06
Oc1ccc(-c2nn3c(-c4ccccc4)cc(-c4ccccc4)nc3c2-c2ccccc2)cc1	< 0.01	< 0.01
Oc1ccc(-c2c(-c3ccccc3)nn3cccnc23)cc1	0.01	0.05
Oc1ccc(-c2nn3c(C(F)(F)F)cc(C(F)(F)F)nc3c2-c2ccccc2)cc1	0.39	0.41
FC(F)(F)c1cc(C(F)(F)F)n2nc(-c3ccccc3)c(-c3ccccc3)c2n1	< 0.01	< 0.01
Oc1ccc(-c2nn3c(-c4ccccc4)cc(-c4ccccc4)nc3c2-c2cccc(O)c2)cc1	< 0.01	< 0.01
CCc1cc(CC)n2nc(-c3ccccc3)c(-c3ccc(O)cc3)c2n1	0.02	0.05
CC(C)c1cc(C(C)C)n2nc(-c3ccccc3)c(-c3ccc(O)cc3)c2n1	0.01	0.05
Oc1ccc(-c2nn3cccnc3c2-c2ccccc2)cc1	< 0.01	0.02

Results, then the molecule that gave them:

Binding affinity [1]	Binding affinity [2]	SMILES
< 0.01	< 0.01	Cc1cc(C)n2nc(-c3ccc(O)cc3)c(-c3cccc(O)c3)c2n1
< 0.01	< 0.01	CCc1cc(CC)n2nc(-c3cccc(O)c3)c(-c3ccc(O)cc3)c2n1
< 0.01	< 0.01	Oc1ccc(-c2c(-c3cccc(O)c3)nn3cccnc23)cc1
< 0.01	< 0.01	Cc1cc(C)n2nc(-c3cccc(O)c3)c(-c3ccc(O)cc3)c2n1
0.04	0.07	Cc1cc(C)n2nc(-c3ccc(O)cc3)c(-c3ccc(O)cc3)c2n1
0.01	< 0.01	CC(C)c1cc(C(C)C)n2nc(-c3ccc(O)cc3)c(-c3cccc(O)c3)c2n1
< 0.01	0.01	Cc1nc2c(-c3ccc(O)cc3)c(-c3ccccc3)nn2c(C)c1C
0.02	0.01	Cc1c(C(C)(C)C)nc2c(-c3cccc(O)c3)c(-c3ccc(O)cc3)nn2c1C(C)(C)C
0.01	0.05	Cc1cc(C)n2nc(-c3ccccc3)c(-c3ccc(O)cc3)c2n1
0.16	0.07	CCc1cc(CC)n2nc(-c3ccc(O)cc3)c(-c3ccc(O)cc3)c2n1
0.02	0.11	Cc1cc(C)n2nc(-c3ccc(O)cc3)c(-c3ccccc3)c2n1
< 0.01	< 0.01	Cc1cc(C)n2nc(-c3ccccc3)c(-c3ccccc3)c2n1
< 0.01	0.01	CC(C)c1cc(C(C)C)n2nc(-c3cccc(O)c3)c(-c3ccc(O)cc3)c2n1
0.01	0.02	Cc1nc2c(-c3ccccc3)c(-c3ccc(O)cc3)nn2c(C)c1C
< 0.01	< 0.01	CCc1cc(CC)n2nc(-c3ccc(O)cc3)c(-c3cccc(O)c3)c2n1
0.01	0.04	Oc1ccc(-c2c(-c3cccc(O)c3)nn3c(C(F)(F)F)cc(C(F)(F)F)nc23)cc1
< 0.01	< 0.01	Oc1ccc(-c2nn3cccnc3c2-c2cccc(O)c2)cc1
0.04	0.08	Oc1ccc(-c2nn3c(C(F)(F)F)cc(C(F)(F)F)nc3c2-c2cccc(O)c2)cc1
< 0.01	< 0.01	Cc1nc2c(-c3cccc(O)c3)c(-c3ccc(O)cc3)nn2c(C)c1C
< 0.01	< 0.01	Cc1c(C(C)(C)C)nc2c(-c3ccc(O)cc3)c(-c3cccc(O)c3)nn2c1C(C)(C)C
0.01	0.01	Cc1nc2c(-c3ccc(O)cc3)c(-c3ccc(O)cc3)nn2c(C)c1C
< 0.01	< 0.01	Cc1nc2c(-c3ccc(O)cc3)c(-c3cccc(O)c3)nn2c(C)c1C
